Earlier results as cited in patent publication US10645923B2, “Insect bait” (priority 2010, dated 2020).

Key:
[1] = tested on: V. Germanica; settings: hydramethylnon 2%, after 72 hours
[2] = tested on: wasps; settings: fipronil versus sulfluramid; faster acting
[3] = tested on: Vespula spp.; settings: treated areas
[4] = tested on: wasps; settings: beef baited with fipronil, North West Patagonia (Argentina)

SMILES	reduction of wasp populations [1]	concentration factor lower than sulfluramid at equal toxicity [2]	reduction of colony activity [3]	reduction of wasp densities [4]
CC1(C)CNC(=NN=C(/C=C/c2ccc(C(F)(F)F)cc2)/C=C/c2ccc(C(F)(F)F)cc2)NC1 [hydramethylnon]	54%	–	–	–
N#Cc1nn(-c2c(Cl)cc(C(F)(F)F)cc2Cl)c(N)c1[S+]([O-])C(F)(F)F (stereo not shown) [Fipronil]	–	1000 times	99.7%	80-100%
